In patent publication US20240197742A1, “Therapeutic Combinations of a CD19 Inhibitor and a BTK Inhibitor” (Acerta Pharma B.V., priority 2015, published 2024):
“Also recorded” adds a separate entry of the source.

How the values were obtained:
[1] = system: BCR activation markers CD69 and CD86; assay: In vivo potency: expression of BCR activation markers after IgM stimulation; conditions: mice gavaged, 3 hours post-dose, BCR stimulated with IgM; versus Formula (10)
Experimental: Mice were gavaged at increasing drug concentration and sacrificed at one time point (3 hours post-dose). BCR is stimulated with IgM and the expression of activation markers CD69 and CD86 are monitored by flow cytometry to determine EC50 values.
CD86 and CD69 are cell surface proteins that are BCR activation markers. […] BCR was stimulated with IgM and the expression of activation marker CD69 and CD86 are monitored by flow cytometry to determine EC50 values.

[2] = In vitro metabolism in hepatocytes; format: in vitro ADME, and human; conditions: ^4C-labeled Formula (2); mouse, rat, dog, rabbit, monkey, human hepatocytes
Text: No unique human metabolite was identified. Preliminary evaluations of metabolism in the plasma, bile, and urine of rats, dogs, and monkeys indicated metabolic processes of oxidation, glutathione binding, and hydrolysis.

[3] = system: KPC derived mouse pancreatic cancer cells; assay: Orthotopic pancreatic cancer model; format: in vivo; conditions: Formula (2) 15 mg/kg/BID given orally
Experimental: In this study, KPC derived mouse pancreatic cancer cells (KrasG12D;Trp53R172H;Pdx1-Cre) were injected into the pancreases.
Single cell suspensions from tumor samples. Mouse tumor tissue was collected and stored in PBS/0.1% soybean trypsin inhibitor prior to enzymatic dissociation. Samples were finely minced with a scissors and mouse tissue was transferred into DMEM containing 1.0 mg/mL collagenase IV (Gibco), 0.1% soybean trypsin inhibitor, and 50 U/ml DNase (Roche) and incubated at 37° C. for 30 min. with constant stirring while human tissue was digested in 2.0 mg/ml collagenase IV, 1.0 mg/ml hyluronidase, 0.1% soybean trypsin inhibitor, and 50 U/ml DNase for 45 minutes. Suspensions were filtered through a 100 micron filter and washed with FACS buffer (PBS/0.5% BSA/2.0 mM EDTA) prior to staining. Two million total cells were stained with antibodies as indicated. Intracellular detection of FoxP3 was achieved following permeabilization with BD Perm Buffer III (BD Biosciences) and eBioscience Fix/Perm respectively. Following surface staining, samples were acquired on a BD Fortessa and analyzed using FlowJo (Treestar) software.

ID8 ovarian cancer = assay: ID8 syngeneic orthotropic ovarian cancer murine model; format: in vivo, mouse; conditions: 15 mg/kg/BID given orally
Text: Human ovarian cancer models, including the ID8 syngeneic orthotropic ovarian cancer model and other animal models, are described in Fong and Kakar, J. Ovarian Res. 2009, 2, 12; Greenaway, et al., Gynecol. Oncol. 2008, 108, 385-94; Urzua, et al., Tumour Biol. 2005, 26, 236-44; Janat-Amsbury, et al., Anticancer Res. 2006, 26, 3223-28; Janat-Amsbury, et al., Anticancer Res. 2006, 26, 2785-89. […] The results of the study are shown in FIG. 13, FIG. 14, FIG. 15, FIG. 16, FIG. 17, FIG. 18, FIG. 19, and FIG. 20.

[4] = system: pancreatic cancer (KPC mice); assay: KPC pancreatic cancer model; format: in vivo
Experimental: The KPC mouse model recapitulates many of the molecular, histopathologic, and clinical features of human disease (Westphalen and Olive, Cancer J. 2012, 18, 502-510). Combination therapy with gemcitabine was also evaluated in this model. Mice were enrolled after identification of spontaneously appearing tumors in the pancreas that were ≥100 mm^3 (as assessed by high-resolution ultrasonography).

BTK = molecular target: T1, BTK (Mus musculus, UniProt P35991); assay: Molecular probe assay of irreversible BTK occupancy in MDSCs; format: in vivo; conditions: tumor bearing PDA mice, 15 mg/kg BID; Day 8 at 4 hours post dose (N=5)
T1 construct: MDSCs were purified from tumor bearing PDA mice; from tissue; host or cells: granulocytic and monocytic MDSCs from tumor-bearing PDA mice dosed in vivo
T1 sequence (P35991 whole entry): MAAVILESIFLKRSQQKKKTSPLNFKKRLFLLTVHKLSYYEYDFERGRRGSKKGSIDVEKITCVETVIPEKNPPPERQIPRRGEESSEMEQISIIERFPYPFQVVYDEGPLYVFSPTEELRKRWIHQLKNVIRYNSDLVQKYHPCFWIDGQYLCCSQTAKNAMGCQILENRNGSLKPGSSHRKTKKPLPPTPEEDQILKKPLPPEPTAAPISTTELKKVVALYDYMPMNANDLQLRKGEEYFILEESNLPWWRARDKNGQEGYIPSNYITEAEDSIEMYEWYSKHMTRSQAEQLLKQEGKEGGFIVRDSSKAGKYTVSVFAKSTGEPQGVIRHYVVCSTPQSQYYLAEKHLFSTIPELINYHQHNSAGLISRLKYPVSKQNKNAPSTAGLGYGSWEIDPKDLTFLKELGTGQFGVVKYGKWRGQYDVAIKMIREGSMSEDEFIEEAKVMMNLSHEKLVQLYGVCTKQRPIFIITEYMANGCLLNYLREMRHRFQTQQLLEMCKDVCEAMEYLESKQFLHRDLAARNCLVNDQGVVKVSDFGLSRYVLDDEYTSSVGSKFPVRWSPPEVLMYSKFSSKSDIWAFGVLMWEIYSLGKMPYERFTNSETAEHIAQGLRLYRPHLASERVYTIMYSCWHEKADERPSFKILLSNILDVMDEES

NK cells [5] = assay: Antibody-dependent NK cell-mediated IFN-γ release (ELISA); format: cell-based, human; conditions: 1 μM; trastuzumab-coated (10 μg/mL) HER18, 4 hours
Experimental: Cytokine secretion was determined as follows. […] NK cells from healthy donors were enriched as described above and then added to the target cells and incubated for 4 hours at 37° C. Triplicate cultures were performed on NK cells from donors. After incubation, supernatants were harvested, centrifuged briefly, and then analyzed for interferon-γ using an enzyme-linked immunosorbent assay (ELISA) (R&D Systems, Minneapolis, MN, USA).

NK cells [6] = assay: Antibody-dependent NK cell-mediated degranulation (CD107a); format: cell-based, human
Experimental: Lytic granule release was determined as follows. NK cells from healthy donors were enriched and cultured in the presence of target cells, monoclonal antibodies and test articles as described above. After 4 hours, the cultures were harvested and cells were pelleted, washed, and then stained for flow cytometry evaluation. Degranulation was evaluated via by flow cytometery by externalization of CD107a, a protein normally present on the inner leaflet of lytic granules, and gating on NK cells (CD3-CD16^+ lymphocytes). The percentage of CD107α positive NK cells was quantified by comparison with a negative control (isotype control, unstained cells/FMO). Control cultures (NK cells cultured without target cells, or NK, target cell co-cultures in the absence of appropriate monoclonal antibody) were also evaluated; all experiments were performed in triplicate.

primary CLL cells = assay: ADCC chromium release assay, primary CLL targets; format: cell-based, human; conditions: 1 μM; E:T 25:1; variable rituximab concentrations
Experimental: All in vitro experiments were performed in triplicate.
ADCC assays were performed as follows. Briefly, target cells (Raji or primary CLL) were labeled by incubation at 37° C. with 100 μCi ^51Cr for 4 hours prior to co-culture with NK cells. Cells were washed, enumerated, and then added in triplicate to prepared 96-well plates containing treated NK cells at an effector:target (E:T) ratio of 25:1. […] Cultures were incubated at 37° C. for 4 hours, and then centrifuged. Supernatants were harvested and ^51Cr release was measured by liquid scintillation counting. All experiments were performed in triplicate.

CD8+ T cells [7] = assay: CD8+ T cell viability; format: cell-based; conditions: anti-TCR and anti-CD28 coated wells, neutral conditions, 4 days
Experimental: Total T cells were plated on anti-TCR and anti-CD28 coated wells in the presence of both BTK inhibitors. Neutral culture conditions were used that will not polarize T cells to a helper lineage. […] Statistical significance was calculated using the Mann Whitney T-test.

CD8+ T cells [8] = assay: Cytotoxic T cell (CTL) assay; format: cell-based; conditions: 500 nM, relative to vehicle
Experimental: Without being bound by any theory, CD8^+ T cells have two primary effector functions: (1) produce large amounts of IFN-γ (which activates macrophages), and (2) cytolytic activity. […] The targets were B lymphoblasts from lipopolysaccharide (LPS) treated cultures. The assay was performed by incubating different ratios of effectors:targets for 4 hours.

[9] = Formula (2) 15 mg/kg BID orally

## CC#CC(=O)N1CCC[C@H]1c1nc(-c2ccc(C(=O)Nc3ccccn3)cc2)c2c(N)nccn12 [Formula (2), (S)-4-(8-amino-3-(1-(but-2-ynoyl)pyrrolidin-2-yl)imidazo[1,5-α]pyrazin-1-yl)-N-(pyridin-2-yl)benzamide]
[1]
  in vivo potency at inhibiting expression of activation markers CD69 and CD86: more potent
[2]
  metabolites in hepatocytes: two mono-oxidized metabolites and a glutathione conjugate
[3]
  tumor burden: reduction in tumor burden
ID8 ovarian cancer
  CD8+ T cells: increase
  immunosuppressive tumor associated Tregs: significant reduction
ID8 ovarian cancer; tumor-bearing mice
  B regulatory cells (Bregs): significant reduction
  immunosuppressive tumor associated lymphocytes: significant reduction
  total B cells: significant reduction
ID8 ovarian cancer; versus vehicle
  ID8 ovarian cancer growth: impairs
[4]; [9]
  CD8+ cells in tumor tissues: significant increase
  immunosuppressive MDSCs (Gr1+Ly6CHi) in tumor tissues: significantly reduced
  immunosuppressive TAMs (CD11b+Ly6ClowF4/80+Csf1r+) in tumor tissues: significantly reduced
  immunosuppressive Tregs (CD4+CD25+FoxP3+) in tumor tissues: significantly reduced
  survival at day 14: 6/6
  survival at day 28: 5/6
[4]; Formula (2) 15 mg/kg BID orally (N=6), day 28
  tumor volume, day 28 average: 272 mm^3
[4]; cohort treated with Formula (2) 15 mg/kg BID orally (N=6), predose
  tumor volume, predose average: 165 mm^3
BTK
  BTK occupancy in granulocytic and monocytic MDSC compartments: Complete
NK cells [5]
  inhibition of trastuzumab-stimulated NK cell cytokine release: no inhibitory effect
NK cells [6]; 1 μM, trastuzumab-coated (10 μg/mL) HER18, 4 hours
  inhibition of trastuzumab-stimulated NK cell degranulation: no inhibitory effect
NK cells [6]; rituximab-coated (10 μg/mL) DHL-4, 4 hours
  reduction of rituximab-stimulated NK cell degranulation: < 2%
Primary CLL cells
  effect on rituximab-mediated ADCC, primary CLL / autologous tumor cells: not inhibited
CD8+ T cells [7]
  effect on CD8+ T cell viability: not observed; also recorded: no effect
CD8+ T cells [8]; 4 days CTL generation
  CD8+ T cell function as measured by % cytotoxicity: no effect
CD8+ T cells [8]
  CD8+ T cell function as measured by IFN-γ level: no effect
